pIC50: −log10 of the molar value.
How the values were obtained:
[1] = target: T1, Matrix metalloproteinase 14 (MMP-14) (Homo sapiens, UniProt P50281); test: Enzyme inhibition experiment, MMP-14; format: biochemical; conditions: 444221 substrate, 37° C., 5 hours
T1 construct: purchased Calbiochem 475935
Experimental: Matrix metalloproteinase 14 (MMP-14) (manufactured by Calbiochem, product number: 475935)
444221 substrate (DNP-Pro-Cha-Gly-Cys(Me)-His-Ala-Lys(Nma)-NH2, custom synthesis): excitation wavelength at 355 nm, emission wavelength at 460 nm
(§1) The enzyme reaction was carried out using the enzymes and substrates. Specifically, if necessary, the enzyme was activated in advance with APMA (final concentration 1 mmol/L, p-aminophenylmercuric acetate, manufactured by Sigma-Aldrich Co., A9563) according to information from the manufacturer. Then, in a 96-well plate for fluorescence measurement, 90 μL of an enzyme solution prepared with Assay Buffer A (50 mmol/L Tris-HCl buffer (pH 7.5) containing 200 mmol/L sodium chloride, 5 mmol/L calcium chloride, 10 μmol/L zinc sulfate, and 2 mg/mL bovine serum albumin) was mixed with 90 μL of the substrate adjusted to be 20 μmol/L with Assay Buffer B (50 mmol/L Tris-HCl buffer (pH 7.5) containing 200 mmol/L sodium chloride, 5 mmol/L calcium chloride, 10 μmol/L zinc sulfate, and 0.05% PLURONIC F-68), and incubated for reaction at 25° C. or 37° C. for several hours. Moreover, the fluorescence intensities before and after the reaction were measured using a fluorometer to determine the enzyme activity. An inhibition rate was obtained based on the enzyme activities in the presence and absence of the test substances, and the 50% inhibitory concentration (IC50) was calculated.

[2] = target: T2, Matrix metalloproteinase 2 (MMP-2) (Homo sapiens, UniProt P08253); test: Enzyme inhibition experiment, MMP-2; format: biochemical; conditions: 3163 substrate, 37° C., 5 hours
T2 construct: purchased Calbiochem 444213
T2 sequence (P08253 110-660): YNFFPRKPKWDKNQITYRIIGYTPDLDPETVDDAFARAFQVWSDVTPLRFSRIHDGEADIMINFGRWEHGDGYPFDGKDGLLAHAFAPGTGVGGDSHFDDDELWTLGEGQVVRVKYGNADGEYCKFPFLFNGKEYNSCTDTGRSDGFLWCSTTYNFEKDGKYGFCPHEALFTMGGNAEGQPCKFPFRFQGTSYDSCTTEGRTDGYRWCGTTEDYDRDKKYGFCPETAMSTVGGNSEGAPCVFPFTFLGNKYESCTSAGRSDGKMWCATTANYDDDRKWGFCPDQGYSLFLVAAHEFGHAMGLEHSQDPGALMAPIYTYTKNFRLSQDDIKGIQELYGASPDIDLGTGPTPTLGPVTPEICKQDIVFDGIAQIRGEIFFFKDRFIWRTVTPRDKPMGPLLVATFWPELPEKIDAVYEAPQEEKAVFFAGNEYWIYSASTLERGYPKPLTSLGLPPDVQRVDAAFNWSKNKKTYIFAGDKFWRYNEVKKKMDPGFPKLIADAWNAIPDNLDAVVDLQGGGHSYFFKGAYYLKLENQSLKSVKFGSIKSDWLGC
Experimental: as §1, with “activity.” for “activity. An inhibition rate was obtained based on the enzyme activities in the presence and absence of the test substances, and the 50% inhibitory concentration (IC50) was calculated.”

[3] = test system: human peripheral blood PRP (platelet-rich plasma); test: Function-maintaining effect on human peripheral blood PRP (flow cytometry CD41/CD42b); format: cell-based; conditions: Test Example 12; 37° C., 24 hours or 72 hours; S-45457 50 μM, S-45282 5 μM, p38 inhibitors 40 μM
[4] = target: T3, Matrix metalloproteinase 13 (MMP-13) (Homo sapiens, UniProt P45452); test: Enzyme inhibition experiment, MMP-13; format: biochemical; conditions: 444221 substrate, 37° C., 4 hours
T3 construct: purchased Chemicon CC068
Experimental: Matrix metalloproteinase 13 (MMP-13) (manufactured by Chemicon, product number: CC068)
as §1, with “activity.” for “activity. An inhibition rate was obtained based on the enzyme activities in the presence and absence of the test substances, and the 50% inhibitory concentration (IC50) was calculated.”

[5] = test system: human peripheral blood-derived platelets (ADAM17-mediated GPIbα shedding); test: Function-maintaining effect on human peripheral blood-derived washed platelets with CCCP (flow cytometry CD41/CD42b); format: cell-based; conditions: Test Example 13; 100 μM CCCP, 37° C., 24 hours; S-45457 50 μM, S-45282 5 μM, p38 inhibitors 40 μM
Experimental: Specifically, according to <Protocol 2> illustrated in FIG. 6, first, ACD was added to human peripheral blood obtained by collecting blood at a ratio of 1:10, and centrifuged at 900 rpm for 10 minutes without a break. The supernatant obtained by the centrifugation was further centrifuged at 1500 rpm for 10 minutes without a break, and then the supernatant was removed. The precipitate thus obtained was suspended in a Tyrode-HEPES buffer (not containing calcium). The number of platelets in the suspension was counted, and the suspension (Washed Platelet) was adjusted to contain 5×10^7 to 1×10^8 of platelets/200 μL of the Tyrode-HEPES buffer (not containing calcium). […] After incubation at 37° C. for 24 hours, the numbers of CD41(+)CD42b(+) and CD41(+)CD42b(−) were counted by flow cytometry.
After incubation at 37° C. for 24 hours, a dot plot analysis on CD41(+) and CD42b(+) was conducted by flow cytometry.
After incubation at 37° C. for 24 hours and flow cytometry analysis, a percentage of CD41(+)CD42b(+) in the platelets was calculated.
After incubation at 37° C. for 24 hours, a total number of platelets and the number of CD42b(+) were counted by flow cytometry, and percentage of CD42b(+) in the platelets was calculated.
After incubation at 37° C. for 24 hours, by flow cytometry, a dot plot analysis on CD41(+) and CD42b(+) was conducted.

ADAM17 = target: T4, ADAM17 (Homo sapiens, UniProt P78536); test: ADAM17 inhibition experiment (fluorescent synthetic substrate); format: biochemical; conditions: from Table 3
T4 construct: made in house; host or cells: mammalian cells or insect cells
Experimental: The cDNA was incorporated into an expression vector. Then, this vector was transfected into mammalian cells or insect cells, and ADAM17 was expressed and obtained.
Next, the activity of ADAM17 was measured, as follows in the presence or absence of the test substances, in which obtained ADAM17 was used as an enzyme, and a fluorescent synthetic substrate Nma (N-methyl anthranilate)-[…]Dnp (dinitrophenyl)-D-Arg-NH2 containing an ADAM17-cleavage sequence of membrane-bound TNF was used as a substrate.
Specifically, 90 μL of 14 units of an enzyme solution (1 unit is defined as an amount of enzyme degrading […] of the substrate in 1 minute at 25° C.) prepared with Assay Buffer A (50 mmol/L Tris-HCl buffer (pH 7.5) containing 200 mmol/L sodium chloride, 5 mmol/L calcium chloride, 10 μmol/L zinc sulfate, and 2 mg/mL bovine serum albumin) was mixed with 90 μL of the fluorescent synthetic substrate adjusted to be 20 μmol/L with Assay Buffer B (50 mmol/L Tris-HCl buffer (pH 7.5) containing 200 mmol/L sodium chloride, 5 mmol/L calcium chloride, 10 μmol/L zinc sulfate, and 0.05% PLURONIC F-68), and allowed for reaction at 37° C. for 1.5 hours. Thereafter, the enzyme activity was determined by measurement using a fluorometer (Fluoroskan Ascent) under conditions of an excitation wavelength of 355 nm and a measurement wavelength of 460 nm. Then, an inhibition rate was obtained based on the enzyme activities in the presence and absence of the test compounds, and the 50% inhibitory concentration (IC50) was calculated.
A disintegrin and metalloproteinase 17 (ADAM17, TACE) (used was one prepared at Kaken Pharmaceutical Co., Ltd. by employing the genetic recombination in the same way as in Test Example 3. Note that, the same as in Test Example 3, 1 unit is defined as an amount of enzyme degrading 1 pmol of substrate in 1 minute at 25° C.)
TACE substrate (the same as one used in Test Example 3): excitation wavelength at 355 nm, emission wavelength at 460 nm
as §1

T4 sequence (P78536 215-824): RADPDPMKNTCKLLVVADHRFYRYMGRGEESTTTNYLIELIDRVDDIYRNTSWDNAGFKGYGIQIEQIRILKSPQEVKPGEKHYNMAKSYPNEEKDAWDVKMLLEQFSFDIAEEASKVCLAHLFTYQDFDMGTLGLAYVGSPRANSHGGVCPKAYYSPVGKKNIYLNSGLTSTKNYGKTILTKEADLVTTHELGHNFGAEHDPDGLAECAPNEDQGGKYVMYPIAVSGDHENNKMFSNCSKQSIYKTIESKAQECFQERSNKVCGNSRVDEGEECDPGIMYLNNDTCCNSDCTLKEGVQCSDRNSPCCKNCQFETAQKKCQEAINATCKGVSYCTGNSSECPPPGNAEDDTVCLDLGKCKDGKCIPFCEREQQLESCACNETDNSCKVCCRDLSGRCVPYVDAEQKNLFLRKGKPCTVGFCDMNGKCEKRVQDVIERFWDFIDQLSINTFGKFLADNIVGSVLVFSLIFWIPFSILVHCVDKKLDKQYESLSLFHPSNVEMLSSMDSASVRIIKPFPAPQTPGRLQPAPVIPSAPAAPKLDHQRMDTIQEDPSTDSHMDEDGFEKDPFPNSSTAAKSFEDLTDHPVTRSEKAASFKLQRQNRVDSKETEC

With `CC#CCOc1ccc(S(=O)(=O)CC(c2ccc(CN(CC)CC)cc2)N(O)C=O)cc1` (stereo not drawn) [Compound I-1, N-[2-(4-But-2-ynyloxybenzenesulfonyl)-1-(4-diethylaminomethylphenyl)ethyl]-N-hydroxyformamide] the pIC50 [1] was 6.00, the pIC50 [2] was 6.82 and the “function-maintaining effect on human peripheral blood PRP” value [3] was “strong effect of maintaining a function of human peripheral blood PRP”. For the same compound, the pIC50 [4] was 6.26, the “function-maintaining effect on human peripheral blood-derived platelets (dot plot CD41/CD42b)” value [5] was “strong function-maintaining effect on human peripheral blood-derived platelets but not as strong as S-45457” and the “specificity to ADAM17 in comparison with metalloproteinases other than ADAM17” value (ADAM17) was “high specificity to ADAM17”.
With `CC#CCOc1ccc(S(=O)(=O)CC(c2ccc(CNS(C)(=O)=O)cc2)N(O)C=O)cc1` (stereo not drawn) [Compound I-4, N-{4-[2-(4-But-2-ynyloxybenzenesulfonyl)-1-(formylhydroxyamino)ethyl]benzyl}methanesulfonamide] the pIC50 [1] was 5.85, the pIC50 [2] was 6.54 and the “function-maintaining effect on human peripheral blood PRP” value [3] was “capable of continuously suppressing ADAM17-mediated GPIbα (CD42b) shedding even incubated for 72 hours”. The pIC50 [4] was 6.15, the “function-maintaining effect on human peripheral blood-derived platelets (dot plot CD41/CD42b)” value [5] was “suppresses ADAM17-mediated GPIbα (CD42b) shedding” and the “specificity to ADAM17 in comparison with metalloproteinases other than ADAM17” value (ADAM17) was “high specificity to ADAM17”.

Reference: patent US9034922B2, “Composition for maintaining function of platelets” (THE UNIVERSITY OF TOKYO, priority 2010, dated 2015)
